Drawing on ChEMBL document CHEMBL5528041, “Ferroptosis-Based Therapeutic Strategies toward Precision Medicine for Cancer” (J Med Chem, 2024), this text covers IC50 for six compounds.

In one test the test system is BXPC-3. The test can be described thus: Antiproliferative activity against human BXPC-3 cells assessed as inhibition of cell proliferation treated for 72 hrs by resazurin dye-based fluorescence assay. The format is functional. The following applies: BXPC-3, 72 h. On the technique in general: The colour change of resazurin is a common sign of viable cells or microbes.

A further test concerns Panc1005. Briefly: Antiproliferative activity against human Panc1005 cells assessed as reduction in cell growth incubated for 72 hrs by Cell titer-Glo luminescent cell viability assay. The format is functional, cell-based. The conditions noted are these: Panc1005, 72 h. In general terms: In ATP-based viability assays light output follows the ATP content of the culture.
The next test deals with ASPC1. The test can be described thus: Cytotoxicity against human ASPC1 cells assessed as inhibition of cell growth by SRB assay. The format is functional, cell-based. (Sulforhodamine B stains cellular protein and so reports cell mass.)
The next test deals with PANC-1. Briefly: Antiproliferative activity against human PANC-1 cells assessed as reduction in cell viability incubated for 48 hrs by resazurin dye based cell titer-blue viability assay. The format is functional. The conditions noted are these: PANC-1, 48 h.
The next test has as its system MDA-MB-231. The test can be described thus: Antiproliferative activity against human MDA-MB-231 cells assessed as inhibition of cell viability measured after 72 hrs by MTT assay. The following applies: MDA-MB-231, 72 h. The format is functional, cell-based.
The next test concerns ID8. Briefly: Cytotoxicity against mouse ID8 cells assessed as inhibition of cell viability measured after 24 hrs by MTT assay. The format is functional, cell-based. The following applies: ID8, 24 h.
The next test has as its system B16. The test can be described thus: Cytotoxicity against mouse B16 cells assessed as inhibition of cell viability measured after 24 hrs by MTT assay. The following applies: B16, 24 h. The format is functional, cell-based.
A further test has as its system MC-38. Briefly: Cytotoxicity against mouse MC-38 cells assessed as reduction in cell viability incubated for 24 hrs by MTS assay. The conditions noted are these: MC-38, 24 h. The format is functional, cell-based.
A further test has as its system Hepa 1-6. The test can be described thus: Cytotoxicity against mouse Hepa1-6 cells assessed as inhibition of cell growth incubated for 24 hrs by MTT assay. The following applies: Hepa1-6, 24 h. The format is functional, cell-based.
Test [1] is described as follows: Cytotoxicity against mouse Hepa-1 cells assessed as reduction in cell viability incubated for 24 hrs by MTS assay. The format is functional, cell-based. The following applies: Hepa-1, 24 h.
Test [2] has as its system HCT-116. Briefly: Antiproliferative activity against human HCT-116 cells assessed as reduction in cell growth incubated for 48 hrs by MTT assay. The conditions noted are these: HCT-116, 48 h. The format is functional, cell-based.
Test [3] relates to HT-29. Briefly: Antiproliferative activity against human HT-29 cells assessed as inhibition of cell growth measured after 48 hrs by SRB assay. The format is functional, cell-based. The conditions noted are these: HT-29, 48 h.
Test [4] in a line: Antiproliferative activity against human CRC cells assessed as reduction in cell viability incubated for 48 hrs by MTT assay. The format is functional, cell-based.
The subject of the next test is Huh-7. The test can be described thus: Cytotoxicity against human Huh-7 cells assessed as reduction in cell viability incubated for 72 hrs by MTT assay. The conditions noted are these: Huh-7, 72 h. The format is functional, cell-based.
A short description of test [5]: Antiproliferative activity against human HCCM-5 cells assessed as reduction in cell viability measured after 72 hrs by MTT assay. The format is functional, cell-based. The following applies: HCCM-5, 72 h.
Test [6] has as its system HCT-116. The test can be described thus: Antiproliferative activity against human HCT-116 cells assessed as reduction in cell viability incubated for 48 hrs by WST-1 assay. The following applies: HCT-116, 48 h. The format is functional, cell-based.
In test [7] the test system is HT-29. Briefly: Antiproliferative activity against human HT-29 cells assessed as reduction in cell viability measured after 48 hrs by WST-1 assay. The format is functional, cell-based. The conditions noted are these: HT-29, 48 h.

Converted amounts (≈) assume the structure as drawn.

In general, IC50 refers to the concentration at which inhibition is half-maximal. Consider `Oc1c([C@@H](Nc2ccccn2)c2cccc(Cl)c2Cl)ccc2cccnc12`, for which the IC50 with BXPC-3, in the test on Panc1005, in the test with ASPC1 and in the test with PANC-1 was 590 nM throughout.

For the compound `N#Cc1ccc(C(=O)/C=C/c2ccccc2Oc2ccccc2C=O)cc1`, in the test on MDA-MB-231, the IC50 stood at 10600 nM.

For `CCOc1ccccc1-n1c(C(C)N2CCN(C(=O)COc3ccc(Cl)cc3)CC2)nc2ccccc2c1=O` (configuration not stated) [ERASTIN], the IC50 with ID8 was 1200 nM; with B16, 5000 nM; with MC-38, 500 nM; in the test on Hepa 1-6, 500 nM; in test [1] it was 500 nM.

Regarding `CC(C)=CC/C=C(\C)[C@H]1CC[C@]2(C)[C@@H]1[C@H](O)C[C@@H]1[C@@]3(C)CC[C@H](O)C(C)(C)[C@@H]3[C@@H](O[C@@H]3O[C@H](CO)[C@@H](O)[C@H](O)[C@H]3O)C[C@]12C` [GINSENOSIDE RH4], the results for the half-maximal inhibitory concentration (IC50) (in the test on HCT-116 [2]; with HT-29 [3]; in [4]) were 178000 nM, 197000 nM and 197000 nM, respectively.

Turning to `C/C=C/C#CC#C/C=C/c1ccco1`, the half-inhibitory concentration (IC50) worked out at 22400 nM with Huh-7 and 59700 nM in test [5].

Take `C=C1CC[C@@H]2[C@](C)(CO)[C@H](O)CC[C@@]2(C)[C@@H]1C/C=C1/C(=O)OC[C@H]1O` [ANDROGRAPHOLIDE]: the IC50 in the test on HCT-116 [6] was 19 µg/mL (≈ 54.2 µM); with HT-29 [7], 10 µg/mL (≈ 28.5 µM).
